The test system of data set [1] is resistant human lung with low topo II activity (A549-VP). The experiment in a line: In vitro microdilution inhibition, resistant human lung A549-VP. The class given is cell-based. The note with it: A549VP, 72 hours, 50% of cells killed. The text has this:
(§1) As shown in Table III the compounds of the present invention exert an in vitro antitumor effect. The following cells lines were employed: human lung (A549); resistant human lung with low topo II activity (A549-VP); murine melanoma (B16); human colon tumor (HCT116); human colon tumor with elevated p170 levels (HCTVM); human colon tumor with low topo II activity (HCTVP); and another human colon carcinoma cell line (Moser). In the Table, the designation "NT" indicates the compound was not tested against the specified cell line. The cell lines were maintained in continuous culture at 37°, 5% CO2 and high humidity. Cells were harvested in log phase growth and suspended at concentration of 25,000 cells/mL. A […] aliquot was then added to each well (i.e., 3,750 cells per well) of a 96-well flat bottom plate and the cells were allowed to attach over a 24 hour period. After this 24 hour incubation, a 50 μL sample of the specified compound was added to the first (top) well of each column, and the remaining wells of each column serially diluted, 1:4, and allowed to incubate for 72 hours at 37° C., 5% CO2 and high humidity. Following incubation, 50 μL of freshly prepared stain solution was added to each well. After a 3 hour incubation at room temperature, absorbance was read at 450 nm on a microplate reader to determine the compound concentration at which 50% of the cells were killed, such concentration referred to as the "IC50 ".
(Dilution methods test growth across graded concentrations, often in twofold steps.)

For another data set, the system named is human lung (A549). The experiment in a line: In vitro microdilution inhibition, human lung A549. It counts as cell-based. To be noted: A549, 72 hours, 50% of cells killed.
Description: as §1

The test system of data set [2] is human colon tumor with low topo II activity (HCTVP). The experiment in a line: In vitro microdilution inhibition, HCTVP. To be noted: 72 hours, 50% of cells killed. The class given is cell-based.
Description: as §1

Data set [3] deals with human colon tumor with elevated p170 levels (HCTVM). Kind of data set: In vitro microdilution inhibition, HCTVM. The class given is cell-based. To be noted: 72 hours, 50% of cells killed.
Description: as §1

For data set [4], the system named is human colon tumor (HCT116). The experiment in a line: In vitro microdilution inhibition, HCT116. To be noted: HCT-116, 72 hours, 50% of cells killed. It counts as cell-based.
Description: as §1

Another data set has as its system murine melanoma (B16). Kind of data set: In vitro microdilution inhibition, B16. The note with it: Mus musculus; B16, 72 hours, 50% of cells killed. It counts as cell-based.
Description: as §1

Another data set concerns p388 murine leukemia. Kind of data set: In vivo activity against p388 murine leukemia in an acute mouse model. The note with it: CDF1 (female only); for AWC (average weight change per mouse): before treatment to day five. The method, then: CDF1 mice of both sexes weighing between 16 and 25 gm. were used, with a 2 gm. weight range and same sex and source used per experiment. BDF1 mice also were used with the same weight, sex and source parameters. Control and test animals were injected interperitoneally with suspension of 1×10^6 p388 murine leukemia cells (0.5 mL dose) on day 0. Groups of 4-6 mice were used for each dosage amount they were treated with 5 doses on day one. A group of ten saline treated control mice was included in each set of experiments. A 30 day protocol was employed with mean survival time in days being determined for each group of mice with the number of survivors at the end of the 30 day period being noted. The mice were weighed before treatment and again on day five. The values listed for average weight change (AWC) is the average weight change per mouse at the specified dose. The change in weight was taken as a measure of drug toxicity. A loss in weight of up to 2 grams is not considered excessive. The results were determined in terms of % T/C which is the ratio of the mean survival time of the treated group to the mean survival time of the saline treated group times 100.

In brackets after ≈: the same amount, converted by molar mass. Where a name gives a salt, the structure may show the parent alone.

Results on 16 molecules are retold here after patent US5166208A, “Fredericamycin A derivatives” (Boston College, priority 1991, dated 1992).

For orientation: IC50 means the point on the concentration scale where inhibition reaches its midpoint. Read a low IC50 as inhibition by little substance. For the molecule `O=C1C=CC(=O)c2c(O)c3c(c(O)c21)C(=O)C1(CCc2ccccc21)C3=O` [Example 4, 2',3'-Dihydro-1H-indene-1'-spiro-2-[4,9-dihydroxy-2H-benz[f]-indene-1,3,5,8-tetrone]], the 50% inhibitory concentration (IC50) is 2.3 µg/mL (≈ 6.38 µM) in data set [1]; 1.5 µg/mL (≈ 4.16 µM) in the data set with human lung (A549); 0.4 µg/mL (≈ 1.11 µM) in data set [2]; 0.3 µg/mL (≈ 0.833 µM) in data set [3]; 0.3 µg/mL (≈ 0.833 µM) in data set [4]; 1 µg/mL (≈ 2.78 µM) in the data set with murine melanoma (B16).
`COCOc1cccc2c1C1(CC2)C(=O)c2c(O)c3c(c(O)c2C1=O)C(=O)C(OC)=CC3=O` (centres unmarked) [Example 5, 2',3'-Dihydro-7'-(methoxymethoxy)-6-methoxy-1H-indene-1'-spiro-2-[4,9-dihydroxy-2H-benz[f]indene-1,3,5,8-tetrone]]: the half-inhibitory concentration (IC50) in data set [1] was determined as 1.1 µg/mL (≈ 2.44 µM); in the data set with human lung (A549) it was 0.4 µg/mL (≈ 0.888 µM); in data set [2], 0.2 µg/mL (≈ 0.444 µM); in data set [3], 0.2 µg/mL (≈ 0.444 µM); in data set [4] it was 0.09 µg/mL (≈ 0.2 µM); in the data set on murine melanoma (B16), 0.7 µg/mL (≈ 1.55 µM).
As to `COC1=CC(=O)c2c(O)c3c(c(O)c2C1=O)C(=O)C1(CCc2cccc(O)c21)C3=O` (centres unmarked) [Example 6, 2',3'-Dihydro-7'-hydroxy-6-methoxy-1H-indene-1'-spiro-2-[4,9-dihydroxy-2H-benz[f]indene-1,3,5,8-tetrone]], the IC50 in data set [1] came to 6.4 µg/mL (≈ 15.8 µM); with human lung (A549), 4.9 µg/mL (≈ 12.1 µM); in data set [2], 3.5 µg/mL (≈ 8.61 µM); in data set [3], 1.7 µg/mL (≈ 4.18 µM); in data set [4], 1.6 µg/mL (≈ 3.94 µM); with murine melanoma (B16), 5.2 µg/mL (≈ 12.8 µM).
`CCNC1=CC(=O)c2c(O)c3c(c(O)c2C1=O)C(=O)C1(CCc2cccc(OCOC)c21)C3=O` (centres unmarked) [Example 11, 2',3'-Dihydro-6-ethylamino-7'-(methoxymethoxy)-1H-indene-1'-spiro-2-[4,9-dihydroxy-2H-benz[f]-indene-1,3,5,8-tetrone]]: the IC50 in data set [1] was 0.03 µg/mL (≈ 0.0647 µM); in the data set with human lung (A549), under 0.03 µg/mL; in data set [2] it was 0.03 µg/mL (≈ 0.0647 µM); in data set [3], 0.03 µg/mL (≈ 0.0647 µM); in data set [4], 0.03 µg/mL (≈ 0.0647 µM); in the data set with murine melanoma (B16), 0.03 µg/mL (≈ 0.0647 µM).
Consider `COCOc1cccc2c1C1(CC2)C(=O)c2c(O)c3c(c(O)c2C1=O)C(=O)C(NCC(F)(F)F)=CC3=O` (centres unmarked) [Example 13, 2',3'-Dihydro-6-(2,2,2-trifluoroethylamino)-7'-(methoxymethoxy)-1H-indene-1'-spiro-2-[4,9-dihydroxy-2H-benz[f]-indene-1,3,5,8-tetrone]], for which the half-inhibitory concentration (IC50) in data set [1] was 0.05 µg/mL (≈ 0.0966 µM); with human lung (A549) it was under 0.03 µg/mL; in data set [2], 0.04 µg/mL (≈ 0.0773 µM); in data set [3], 0.03 µg/mL (≈ 0.058 µM); in data set [4] it was 0.03 µg/mL (≈ 0.058 µM); in the data set on murine melanoma (B16), 0.03 µg/mL (≈ 0.058 µM).
As for `COCOc1cccc2c1C1(CC2)C(=O)c2c(O)c3c(c(O)c2C1=O)C(=O)C(NCC(O)c1ccccc1)=CC3=O` (centres unmarked) [Example 17, 2',3'-Dihydro-7'-(methoxymethoxy)-1H-indene-1'-spiro-2-[6-(2-hydroxy-2-phenyl-ethylamino)-4,9-dihydroxy-2H-benz[f]indene-1,3,5,8-tetrone]], the values for the IC50 (in data set [4]; with murine melanoma (B16)) were 1.47 µg/mL (≈ 2.65 µM) and 15 µg/mL (≈ 27 µM), respectively.
For `COCOc1cccc2c1C1(CC2)C(=O)c2c(O)c3c(c(O)c2C1=O)C(=O)C(Nc1ccc(C(=O)O)cc1)=CC3=O` (centres unmarked) [Example 19, 2',3'-Dihydro-7'-(methoxymethoxy)-1H-indene-1'-spiro-2-[6-(4-carboxyanilino)-4,9-dihydroxy-2H-benz[f]indene-1,3,5,8-tetrone]] the same measures were 322 µg/mL (≈ 580 µM) and 27 µg/mL (≈ 48.6 µM).
As for `COCOc1cccc2c1C1(CC2)C(=O)c2c(O)c3c(c(O)c2C1=O)C(=O)C(Nc1ccc(O)cc1)=CC3=O` (centres unmarked) [Example 21, 2',3'-Dihydro-7'-(methoxymethoxy)-1H-indene-1'-spiro-2-[6-(4-hydroxyanilino)-4,9-dihydroxy-2H-benz[f]indene-1,3,5,8-tetrone]], the IC50 worked out at 6.79 µg/mL (≈ 12.9 µM) in data set [4] and 18.7 µg/mL (≈ 35.5 µM) in the data set on murine melanoma (B16).
For `CCCCCc1cc2cc3c(c(OCOC)c2c(OC)n1)C1(CC3)C(=O)c2c(O)c3c(c(O)c2C1=O)C(=O)C(NCC)=CC3=O` (centres unmarked) [Example 22, 6',7'-Dihydro-4,9-dihydroxy-6-ethylamino-1'-methoxy-9'-(methoxymethoxy)-3'-(n-pentyl)-spiro[2H-benz[f]-indene-2,8'[8H]cyclopent[g]isoquinoline]-1,3,5,8-tetrone], the “AWC (average weight change per mouse)” value is 1.5 with p388 murine leukemia (3.3 mg/kg), 1.0 in the data set with p388 murine leukemia (10 mg/kg) and -0.2 with p388 murine leukemia (30 mg/kg). For the same molecule, the response vs control in vivo at 3.3 mg/kg in the data set with p388 murine leukemia (Mus musculus, P388, 720 h, 3.3 mg/kg, read-out: % T/C (mean survival time treated/control)) is 95%. In addition, the response vs control in vivo at 10 mg/kg with p388 murine leukemia (Mus musculus, P388, 720 h, 10 mg/kg, read-out: % T/C (mean survival time treated/control)) worked out at 105%. Besides, the response vs control in vivo at 30 mg/kg in the data set with p388 murine leukemia (Mus musculus, P388, 720 h, 30 mg/kg, read-out: % T/C (mean survival time treated/control)) amounted to 135%.
With `COCOc1cccc2c1C1(CC2)C(=O)c2c(O)c3c(c(O)c2C1=O)C(=O)C(N[C@@H](CC(N)=O)C(=O)O)=CC3=O` (some centres unmarked) [Example 26, 2',3'-Dihydro-7'-(methoxymethoxy)-1H-indene-1'-spiro-2-4,9-dihydroxy-6-(1-carboxy-2-carbamoylethylamino)-2H-benz[f]indene-1,3,5,8-tetrone], the half-inhibitory concentration (IC50) was found to be 1.23 µg/mL (≈ 2.23 µM) in data set [4] and 9.3 µg/mL (≈ 16.9 µM) in the data set with murine melanoma (B16).
As for `COCOc1cccc2c1C1(CC2)C(=O)c2c(O)c3c(c(O)c2C1=O)C(=O)C(NC1C(=O)N2C1SC(C)(C)C2C(=O)O)=CC3=O` (centres unmarked) [Example 27, 6-((2',3'-dihydro-7'-(methoxymethoxy)-1H-indene-1'-spiro-[4,9-dihydroxy-2H-benz[f]indene-1,3,5,8-tetrone]-6-yl)amino)penicillanic acid], the half-maximal inhibitory concentration (IC50) in data set [2] worked out at 0.22 µg/mL (≈ 0.347 µM); in the data set on murine melanoma (B16), 0.24 µg/mL (≈ 0.378 µM).
`N=C(N)NCCC[C@H](NC1=CC(=O)c2c(O)c3c(c(O)c2C1=O)C(=O)C1(CCc2cccc(O)c21)C3=O)C(=O)O` (some centres unmarked) [Example 28]: the half-maximal inhibitory concentration (IC50) in data set [4] is 71 µg/mL (≈ 129 µM); in the data set with murine melanoma (B16) it was over 500 µg/mL.
On to `COCOc1cccc2c1C1(CC2)C(=O)c2c(O)c3c(c(O)c2C1=O)C(=O)C(SCCO)=CC3=O` (centres unmarked) [Example 33, 2',3'-Dihydro-7'-(methoxymethoxy)-1H-indene-1'-spiro-2-[4,9-dihydroxy-6-(2-hydroxyethylmercapto)-2H-benz[f]indene-1,3,5,8-tetrone]], for which the figures for the half-maximal inhibitory concentration (IC50) (in data set [4]; in the data set with murine melanoma (B16)) were 5.08 µg/mL (≈ 10.2 µM) and 107 µg/mL (≈ 216 µM), respectively.
Consider `COCOc1cccc2c1C1(CC2)C(=O)c2c(O)c3c(c(O)c2C1=O)C(=O)C(Sc1ccccc1)=CC3=O` (centres unmarked) [Example 34, 2',3'-Dihydro-7'-(methoxymethoxy)-1H-indene-1'-spiro-2-[4,9-dihydroxy-6-(phenylmercapto)-2H-benz[f]indene-1,3,5,8-tetrone]], for which the values for the 50% inhibitory concentration (IC50) (in data set [4]; in the data set with murine melanoma (B16)) were 78 µg/mL (≈ 148 µM) and 110 µg/mL (≈ 208 µM), respectively.
As to `NCCSSCCNC1=CC(=O)c2c(O)c3c(c(O)c2C1=O)C(=O)C1(CCc2cccc(O)c21)C3=O` (centres unmarked) [Example 35, 2',3'-Dihydro-7'-hydroxy-1H-indene-1'-spiro-2-[4,9-dihydroxy-6-(2(2-aminoethyldithio)ethylamino)-2H-benz[f]indene-1,3,5,8-tetrone] hydrochloride], the values for the 50% inhibitory concentration (IC50) (in data set [2]; with murine melanoma (B16)) were 22 µg/mL and 24 µg/mL, respectively.
On to `COCOc1cccc2c1C1(CC2)C(=O)c2c(O)c3c(c(O)c2C1=O)C(=O)C(Nc1ccc(SSc2ccc(N)cc2)cc1)=CC3=O` (centres unmarked) [Example 36, 2',3'-Dihydro-7'-(methoxymethoxy)-1H-indene-1'-spiro-2-[4,9-dihydroxy-6-(4-(4-aminophenyldithio)phenylamino)-2H-benz[f]indene-1,3,5,8-tetrone]], for which the concentration for half-maximal inhibition (IC50) in data set [4] was over 500 µg/mL; with murine melanoma (B16) it was 458 µg/mL (≈ 687 µM).
